Tests used:
B16-F10 melanoma cells = assay: B16-F10 cell growth / proliferation monitoring; format: cell-based; conditions: eATP, 2 mM, compared with AuNC@ATP 2.25 μM
tumor = conditions: intraperitoneal injection of ATP (50 mM); cited from earlier work
[1] = test system: human prostate cancer xenografts; conditions: daily intraperitoneal administration of ATP (25 mM); cited from earlier work
human tumor cells = conditions: cited from earlier work

| Compound | inhibiting B16-F10 cell proliferation (B16-F10 melanoma cells) | tumor size (tumor) | tumor regression [1] | growth of human tumor cells (cell cycle) (human tumor cells) |
| --- | --- | --- | --- | --- |
| Nc1ncnc2c1ncn2[C@@H]1O[C@H](COP(=O)(O)OP(=O)(O)OP(=O)(O)O)[C@@H](O)[C@H]1O [free ATP, Adenosine triphosphate] | does not achieve the same level of effectiveness | effectively reduced tumor size | significant tumor regression | arrest of growth in the S phase |
| Nc1ncnc2c1ncn2[C@@H]1O[C@H](COP(=O)(O)OP(=O)(O)O)[C@@H](O)[C@H]1O [ADP] | – | – | – | arrest of growth in the S phase |

Source: patent US20250352663A1 (priority 2022, published 2025)
